Results as given in patent publication US20230011869A1 (Hoffmann-La Roche Inc., priority 2018, published 2023).
Counter-ions that a name gives are not always drawn. Like-named read-outs stand apart in the source and are kept apart here.

System: Acinetobacter baumannii ATCC17978
Experiment: Antimicrobial susceptibility testing: 90% growth inhibitory concentration (IC90) determination, Iso-Sensitest broth
Assay type: cell-based
Procedure, shortened: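 A. baumannii ATCC17978 grown in Iso-Sensitest broth across 10 compound concentrations at 35±2 °C.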

[1] = 90% growth inhibitory concentration, Acinetobacter baumannii ATCC17978, Iso-Sensitest broth, OD 600 nm over 16 h, read-out: ATCC17978 IC90
[2] = Acinetobacter baumannii, ATCC17978, 16 h, read-out: ATCC17978 IC90, 90% growth inhibitory concentration, Acinetobacter baumannii ATCC17978, Iso-Sensitest broth, OD 600 nm over 16 h

| Structure (SMILES) | IC90 [1] [nM] | IC90 [2] [nM] |
| --- | --- | --- |
| Cc1cc(Nc2nccn3c(-c4ccc(OC(F)F)cc4)cnc23)ccc1C(=O)N1CCN(C(=O)N2CCO[C@@H](CN)C2)CC1 [Example 146, [4-[(2S)-2-(aminomethyl)morpholine-4-carbonyl]piperazin-1-yl]-[4-[[3-[4-(difluoromethoxy)phenyl]imidazo[1,2-a]pyrazin-8-yl]amino]-2-methyl-phenyl]methanone formate] | 300 |  |
| COc1ccc(-c2cnc3c(Nc4ccc(C(=O)N5CCN(C(=O)C6CCCN6)CC5)c(C)c4)nccn23)cc1F (stereo not shown) [Example 174, [4-[[3-(3-fluoro-4-methoxy-phenyl)imidazo[1,2-a]pyrazin-8-yl]amino]-2-methyl-phenyl]-[4-(pyrrolidine-2-carbonyl)piperazin-1-yl]methanone] | 300 |  |
| COC(=O)C[C@H](N)C(=O)N1CCN(C(=O)c2ccc(Nc3nccn4c(-c5ccc(OC(F)F)cc5)cnc34)cc2C)CC1 [Example 514, methyl (3S)-3-amino-4-[4-[4-[[3-[4-(difluoromethoxy)phenyl]imi-dazo[1,2-a]pyrazin-8-yl]amino]-2-methylbenzoyl]piperazin-1-yl]-4-oxobutanoate; hydrochloride] |  | 630 |
| COc1ccc(-c2cnc3c(Nc4ccc(C(=O)N5CCC(CN)CC5)c(C)c4)nccn23)c(F)c1F [Example 28, (4-(aminomethyl)piperidin-1-yl)(4-((3-(2,3-difluoro-4-methoxyphenyl)imidazo[1,2-a]pyrazin-8-yl)amino)-2-methylphenyl)methanone] | 170 |  |
| COc1ccc(-c2cnc3c(Nc4ccc(C(=O)N5CCC(C(=O)NCCN)CC5)c(C)c4)nccn23)cc1F [Example 393, N-(2-aminoethyl)-1-[4-[[3-(3-fluoro-4-methoxyphenyl)imidazo[1,2-a]pyrazin-8-yl]amino]-2-methylbenzoyl]piperidine-4-carboxamide; hydrochloride] |  | 340 |
| Cc1cc(Nc2nccn3c(-c4ccc(OC(F)F)cc4)cnc23)ccc1C(=O)N1CCN(C(=O)NCC2CNC2)CC1 [Example 144, N-(azetidin-3-ylmethyl)-4-[4-[[3-[4-(difluoromethoxy)phenyl]imidazo[1,2-a]pyrazin-8-yl]amino]-2-methyl-benzoyl]piperazine-1-carboxamide formate] | 130 |  |
| Cc1cc(Nc2nccn3c(-c4ccc(OC(F)F)cc4)cnc23)ccc1C(=O)N1CCC(C(=O)N2C[C@H](CO)[C@@H](O)[C@H](O)C2)CC1 [Example 33, (1-(4-((3-(4-(difluoromethoxy)phenyl)imidazo[1,2-a]pyrazin-8-yl)amino)-2-methylbenzoyl)piperidin-4-yl)((3R,4R,5R)-3,4-dihydroxy-5-(hydroxymethyl)piperidin-1-yl)methanone] | 230 |  |

Continued, in another order:

| IC90 [1] [nM] | Structure (SMILES) | IC90 [2] [nM] |
| --- | --- | --- |
| 83 | CC[C@]1(O)CN[C@H](C(=O)N2CCN(C(=O)c3ccc(Nc4nccn5c(-c6ccc(OCC#N)c(F)c6F)cnc45)cc3C)CC2)C1 [Example 232, 2-[4-[8-[4-[4-[(2S,4R)-4-ethyl-4-hydroxy-pyrrolidine-2-carbonyl]piperazine-1-carbonyl]-3-methyl-anilino]imidazo[1,2-a]pyrazin-3-yl]-2,3-difluoro-phenoxy]acetonitrile formate] |  |
| 98 | Cc1cc(Nc2nccn3c(-c4ccc(OCC#N)c(F)c4F)cnc23)ccc1C(=O)N1CCC(C(=O)N2CCN[C@H](CO)C2)CC1 [Example 542, 2-[2,3-difluoro-4-[8-[4-[4-[(3S)-3-(hydroxymethyl)piperazine-1-carbonyl]piperidine-1-carbonyl]-3-methylanilino]imidazo[1,2-a]pyrazin-3-yl]phenoxy]acetonitrile; for-mic acid] |  |
| 2400 | Cc1cc(Nc2nccn3c(-c4ccc(OCC#N)c(F)c4F)cnc23)ccc1C(=O)N1CCN(C(=O)N2CCN[C@@H](C(=O)O)C2)CC1 [Example 450, (2R)-4-[4-[4-[[3-[4-(cyanomethoxy)-2,3-difluorophenyl]imidazo[1,2-a]pyrazin-8-yl]amino]-2-methylbenzoyl]piperazine-1-carbonyl]piperazine-2-carboxylic acid] |  |
